# Values quoted from earlier work in patent publication US20130324399A1, “FUNGICIDAL COMPOSITIONS AND METHODS OF USE” (Bayer Cropscience LP, priority 2010, published 2013).
# Test system: Pythium spp.
# Conditions: Triadimenol, 15% w/v
smiles,measurement,value
"CC(C)(C)C(O)C(Oc1ccc(Cl)cc1)n1cncn1 (stereo not shown) [Triadimenol, triadimenol]",activity against Pythium spp.,no activity
